Data published in PMC10989899, “MomL inhibits bacterial antibiotic resistance through the starvation stringent response pathway” (mLife, 2022).

Tests used:
LasR = biological target: T1, LasR (Pseudomonas aeruginosa, UniProt P25084); experiment: EMSA, LasR binding to relA promoter DNA; assay type: biochemical; conditions: AHL required for DNA binding; the AHL added in EMSA is not named, 3-O-C12-HSL is that of LasR expression; 37 °C
T1 construct: recombinant, pET28a, E. coli BL21(DE3), Ni-NTA

[1] = test system: RpoS (Pseudomonas aeruginosa PAO1); experiment: SPR; conditions: binding buffer not stated, SPR: PBS, temperature not stated

T1 sequence (P25084 whole entry): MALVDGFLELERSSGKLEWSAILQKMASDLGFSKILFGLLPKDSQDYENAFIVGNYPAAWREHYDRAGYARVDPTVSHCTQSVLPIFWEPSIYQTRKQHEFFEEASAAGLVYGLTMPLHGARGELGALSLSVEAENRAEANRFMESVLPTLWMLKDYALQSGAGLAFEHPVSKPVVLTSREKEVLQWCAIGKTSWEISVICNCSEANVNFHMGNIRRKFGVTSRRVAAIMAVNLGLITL

Molecule	EMSA, LasR binding to relA promoter DNA (LasR)	Kd [1] [nM]
CCCCCCCCCC(=O)CC(=O)N[C@H]1CCOC1=O [3-O-C12-HSL]	This binding depended on the presence of AHLs.	
H2-T6SS promoter DNA (SPR)		87.6
